From a melting point compilation (Tetko et al.; mined from patent text by program, amines drawn as free bases though some values may be those of a salt)

First: CC1(C)CCc2c(N)c(Cl)cc(C(=O)O)c2O1
Second: Cc1cc(C(N)=S)c2c(c1C)C(=O)CC2
The melting point of the first is lower: 165 °C for the first, 207 to 208 °C for the second.

First: CC(=O)OC1CCC2(C)C(CCC3C2C(=O)CC2(C)C3CCC23OCCO3)C1 (stereo not drawn)
Second: Cc1cc(CC(=O)N[C@H]2CC[C@H](CCN3CCC(c4cccc5c4CCO5)CC3)CC2)on1
The melting point of the first is lower: 116 to 123 °C for the first, 188 °C for the second.

Compared with `COc1ccc(C(NC(=O)c2ccc(F)cc2)c2cccc(Nc3c(OC)c(=O)c3=O)c2)cc1` (stereo not drawn), `COc1cc2c(cc1OC)CN(CCCCc1ccc(NC(=O)c3ccc4ccccc4c3)cc1)CC2` is higher in melting point: 115 to 116 °C for the first, 165 to 167 °C for the second.

First: COc1cc(C)nc(NC(=O)NS(=O)(=O)c2ccccc2CCC(F)(F)F)n1
Second: CSc1cc(C)nc(SC)c1NC(=O)CCCCSc1nc2cccc(C(F)(F)F)c2o1
The melting point of the first is lower: 174 to 175 °C for the first, 179 to 180 °C for the second.

Compared with `Cc1oc(-c2ccccc2)nc1COc1cccc(/C=C/CO)c1`, `CCOC(=O)c1nccn1CCCc1ccc(OCc2coc(/C=C/c3ccccc3)n2)cc1` is higher in melting point: 118 to 119 °C for the first, 123 to 124 °C for the second.

Compared with `CC(C)[C@H]1CC[C@H](O)C=C1S(=O)(=O)c1ccccc1`, `CC(C)(C)OC(=O)N1[C@@H](C(=O)O)C[C@H](S(=O)(=O)c2ccccc2)[C@H]1c1ccccc1F` (racemic) is higher in melting point: 105 °C for the first, 186 °C for the second.

First: CC(C)(C)Nc1nc2ccc(Cl)cc2c2nc(-c3ccco3)nn12
Second: Clc1ccc(-c2cc3nc(N4CCOCC4)c4ccccc4c3nn2)cc1
The melting point of the first is higher: greater than 330 °C for the first, 244 to 246 °C for the second.

Compared with `O=c1c2cccnc2n(-c2cccc(CO)c2)c(=O)n1Cc1cccnc1`, `CCCCOc1ccc2[nH]n(Cc3ccccc3)c(=O)c2c1` is lower in melting point: 197 to 198 °C for the first, 146 to 147 °C for the second.

First: CC1CC(NC(=O)C(F)(F)F)=NN1c1ccc(Cl)c(Cl)c1 (stereo not drawn)
Second: CC(=O)Nc1c(Cl)ccc(C)c1Cl
The melting point of the first is lower: 150 to 152 °C for the first, 180 to 182 °C for the second.

First: CNC1=Nc2ccccc2C(O)(c2ccccc2)C1(C)C (stereo not drawn)
Second: CCC(CC)N(O)C(=O)Nc1ccccc1Oc1ccccc1
The melting point of the first is higher: 192 to 194 °C for the first, 141 to 142 °C for the second.

Compared with `Fc1ccc([C@H]2CC[C@H](N3CCN(Cc4ccccc4)CC3)CC2)cc1`, `ClC1(CN2c3ccccc3Sc3ccccc32)CN2CCC1CC2` (stereo not drawn) is higher in melting point: 106 °C for the first, 156 to 160 °C for the second.

First: COC(=O)Cc1cccc2c1Sc1ccccc1S2
Second: O=C1NC(=O)C(Nc2ccc(Cl)c3ccccc23)S1 (stereo not drawn)
The melting point of the first is lower: 124 to 125 °C for the first, 205 to 206 °C for the second.

First: OC(c1nccs1)(c1nccs1)C(F)(F)F
Second: CC(C)(O)c1nnc(-c2ccc3ncn(-c4ccc(OC(F)(F)F)cc4)c3c2)o1
The melting point of the first is lower: 113 to 115 °C for the first, 159 to 160 °C for the second.

First: COc1cc(Cc2cnc(NOC3CCCCO3)nc2NO)cc(OC)c1OC (stereo not drawn)
Second: COC(=O)c1c(C)nc2cc(OC)c(OC)cc2c1-c1ccnc(Cl)c1
The melting point of the first is higher: 190 to 192 °C for the first, 145 to 147 °C for the second.

First: CC(C)(C)OC(=O)NC[C@H]1CC[C@H](CCO)CC1
Second: CC(C)(C)OC(=O)NC(C)(C)c1ccc(C(=O)CC#N)cc1
The melting point of the first is lower: 78 to 80 °C for the first, 122 to 123 °C for the second.

First: CCOC(=O)C(C)(C)n1c(=O)[nH]c2ccccc2c1=O
Second: CN(C)C(=O)Nc1coc2ccccc2c1=O
The melting point of the first is lower: 133 to 134 °C for the first, 148 °C for the second.

First: Cc1c(C)c2c(c(C)c1N)CC(C)(CN1CCOCC1)O2 (stereo not drawn)
Second: Fc1ccc(-c2ncn(CCCCN3CCOCC3)c2-c2ccncc2)cc1
The melting point of the first is higher: 114 to 115 °C for the first, 103 to 104 °C for the second.

First: O=C1Nc2ccc(Cl)cc2C1c1ncnc2c1cnn2C1CCCCC1 (stereo not drawn)
Second: NC(=S)c1ncn2c1[C@@H]1CCN1C(=O)c1c(Cl)cccc1-2
The melting point of the first is higher: 300 to 305 °C for the first, 250 to 253 °C for the second.

First: CCC(CC)Nc1c([N+](=O)[O-])cc(C)c(CO)c1[N+](=O)[O-]
Second: CN(CCc1ccc([N+](=O)[O-])cc1)Cc1nc2ccc([N+](=O)[O-])cc2o1
The melting point of the first is lower: 51 to 54 °C for the first, 69 to 69.5 °C for the second.

First: CC(=O)NC[C@H]1CN(c2ccc(C(=O)c3cc(C#N)c4ccccn34)cc2)C(=O)O1
Second: CN(C)Cc1ccc(C(=O)CCC(=O)N2CCN(c3ccc(N4C[C@H](CNC(=S)C5CC5)OC4=O)cc3F)CC2)cc1
The melting point of the first is higher: 255 to 257 °C for the first, 174 to 175 °C for the second.

First: Cc1c(-c2ccc(OCc3ccccc3)cc2)[nH]c2ccc(OCc3ccccc3)cc12
Second: O=C(O)c1ccc(OCCCc2ccccc2)cc1
The melting point of the first is lower: 149 to 150 °C for the first, 165 to 166 °C for the second.

First: O=C(O)c1ccc(CCNc2c(C(=O)O)cc(Cl)cc2[N+](=O)[O-])cc1
Second: CCOC(=O)CCc1ccc(CCNS(=O)(=O)c2ccc(Cl)cc2)cc1
The melting point of the first is higher: 255 to 257 °C for the first, 61 to 62 °C for the second.

First: O=C(c1ccc(-c2ccc3nnn(Cc4ccc5ncccc5c4)c3n2)cc1)N1CCC(N2CCCC2)CC1
Second: CCCCc1ncc(C=C2C(=O)N(C)c3ccccc32)n1Cc1ccc(C(=O)O)cc1
The melting point of the first is lower: 125 to 127 °C for the first, 185 to 188 °C for the second.

Compared with `COc1ccc(F)c2c(O)c(C=O)ccc12`, `COc1ccc2cc(CBr)ccc2c1Br` is lower in melting point: 156 to 158 °C for the first, 92 to 94 °C for the second.

Compared with `CCOC(=O)c1cnoc1-c1ccc(F)c(Br)c1`, `CCOC(=O)C(C#N)c1ncccc1N` (stereo not drawn) is higher in melting point: 111 to 112 °C for the first, 118 to 119 °C for the second.

Compared with `CN(CCc1ccc(N)cc1)C1Cc2ccc(N)cc2C1` (stereo not drawn), `CC(=O)N1CCC(CCc2ccc(N(C)C)cc2)CC1` is lower in melting point: 112 to 114 °C for the first, 49 to 51 °C for the second.

First: CC(C)OC(=O)c1cc(-c2ccncc2)sc1-c1ccncc1
Second: Cc1ccc(C(=O)Nc2ccc(C)c(-c3nc(OC(C)C)nc4c3CNC(=O)N4c3c(F)cccc3F)c2)cc1F
The melting point of the first is lower: 139 to 142 °C for the first, 254 to 255 °C for the second.

Compared with `OC1CCCCC1n1ccnc1` (stereo not drawn), `N#Cc1ccc(Nn2ccnc2)cc1` is higher in melting point: 127 to 131 °C for the first, 162 °C for the second.

First: CN(C)Cc1ncccc1OC1SCC(O)C(O)C1O (stereo not drawn)
Second: Cc1csc(C(=O)CCc2ccccc2)c1OCCN(C)C
The melting point of the first is lower: 79 °C for the first, 106 to 108 °C for the second.

First: COCCOC(=O)Nc1cccc(C)c1CCl
Second: Cc1cccc2c1CCC2NC(=S)NCCO (stereo not drawn)
The melting point of the first is higher: 100 to 102 °C for the first, 90 to 93 °C for the second.

Compared with `CN=C(NS(=O)(=O)c1ccc(Cl)cc1)C1=NN(c2ccc(Cl)cc2)C(c2ccccc2)C1` (stereo not drawn), `Oc1ccc(C2CCOC2(c2ccccc2)c2ccc(O)cc2)cc1` (stereo not drawn) is higher in melting point: 134 to 144 °C for the first, 194 to 196 °C for the second.

First: Cc1nn(CCOc2ccc(C=O)cc2)c(=O)c2ccccc12
Second: CN(C)CCOc1ccc(-c2cccc(N)n2)c2ccccc12
The melting point of the first is lower: 90 °C for the first, 98 to 106 °C for the second.

First: CC(=O)Oc1c(C(C)(C)C)cc2oc(C=O)cc2c1C(C)(C)C
Second: COc1c(-c2ccc(C=NNS(C)(=O)=O)cc2)cc(N2CCC(=O)NC2=O)cc1C(C)(C)C
The melting point of the first is lower: 160 °C for the first, 209 to 211 °C for the second.

Compared with `C=CC(=O)OCCN(CCOC(=O)C=C)c1ccc(N=Nc2ccc([N+](=O)[O-])cc2)cc1`, `CCCCCCCNC(=O)Nc1ccccc1C(=O)Nc1ccc(N(C)C)cc1` is higher in melting point: 91 to 93 °C for the first, 178 to 180 °C for the second.

First: CCCCC[C@@H](CNC(=O)Nc1c(OC(C)C)c(C)nn1-c1ccccc1)c1cccc2c1OCO2
Second: CCOC(=O)NC(CCc1ccccc1)P(=O)(CC(=O)O)OCc1ccccc1 (stereo not drawn)
The melting point of the first is lower: 126 °C for the first, 151 to 153 °C for the second.

First: CS(=O)(=O)c1ccc(-c2c(-c3ccc(F)cc3)c(OCC(=O)c3ccc(F)cc3)nn2CC(=O)c2ccc(F)cc2)cc1
Second: CN1CC(C(=O)c2ccc(Cc3ccc(F)cc3)o2)=C(O)C1=O
The melting point of the first is higher: 194 to 196 °C for the first, 141 to 143 °C for the second.

First: CCOC(=O)C=CC(=O)c1ccc(Oc2ccc(Cl)c(Cl)c2)cc1
Second: CCNC(=O)Cc1ccc(C(=O)c2ccc(Cl)cc2)n1C
The melting point of the first is lower: 115 to 117 °C for the first, 187 to 188 °C for the second.

First: [N-]=[N+]=C1C(=O)c2ccccc2-c2ccccc21
Second: O=C(OC(Cc1ccccc1)C(=O)O)c1ccccc1 (stereo not drawn)
The melting point of the first is lower: 107 to 109 °C for the first, 113 °C for the second.

First: C#CCn1c(=O)c(C(F)(F)F)cc2cc(F)c(-n3c(=O)cc(C(F)(F)F)n(C)c3=O)cc21
Second: O=C(NC(=O)c1c(F)cccc1F)Nc1cc(F)c(C(F)(F)F)c(F)c1
The melting point of the first is higher: 248 to 250 °C for the first, 231 °C for the second.

First: N#Cc1cn(Nc2c(Cl)cc(Cl)cc2Cl)c(=O)[nH]c1=O
Second: CC(C)(C)c1nc(S(C)(=O)=O)n(-c2c(Cl)cc(Cl)cc2Cl)n1
The melting point of the first is higher: greater than 320 °C for the first, 179 to 180 °C for the second.

First: O=C(C=Cc1ccc(C(F)(F)F)cc1)N1CCCCC1CO (stereo not drawn)
Second: O=C(NCCO)/C(=C/c1ccc(OCC(F)(F)F)cc1)NC(=O)c1ccc(OCCC2CC2)cc1
The melting point of the first is lower: 139 to 140 °C for the first, 173 to 175 °C for the second.

First: CN(C)C1(c2ccccc2)CCC2(OCCc3c2[nH]c2ccc(F)cc32)C(F)C1 (stereo not drawn)
Second: O=C1CCN2C(=O)c3cccc(-n4c(=O)[nH]c5cnccc5c4=O)c3C2C1 (stereo not drawn)
The melting point of the first is higher: 237 to 242 °C for the first, 230 °C for the second.

First: COC1CCN(c2cc(NC(=O)OC(C)(C)C)c(N)cc2C#Cc2ccccc2)CC1
Second: CON1C(C)(C)CC(OC(=O)c2ccccc2)CC1(C)C
The melting point of the first is higher: 173 to 176 °C for the first, 67 to 68 °C for the second.

First: CC(C)(C#N)c1cc(CCCn2cncn2)cc(C(C)(C)C#N)c1
Second: COc1cc2c(cc1OC)[C@@H]1CN(C)CC[C@@H]1N=C2c1cccc(C(F)(F)F)c1 (relative stereo)
The melting point of the first is lower: 102 to 104 °C for the first, 215 to 217 °C for the second.

First: CC(=O)c1cc2c(Cl)cccc2s1
Second: NC(=S)/C=C/c1cc([N+](=O)[O-])ccc1Cl
The melting point of the first is lower: 113 to 115 °C for the first, 236 to 238 °C for the second.

Compared with `CCn1cc(Cl)nc(S)c1=O`, `CC1=Nc2c3cc(C(=O)O)nc-3ccn2C1` is higher in melting point: 142 to 144 °C for the first, 325 to 327 °C for the second.

First: Cc1ccnc(C=NNC(N)=S)c1N
Second: Cc1nc(N)nc(N)c1-c1ccc2ccccc2c1
The melting point of the first is higher: 227 to 228 °C for the first, 221 to 222 °C for the second.

First: C[C@H]1CCCC(C)(C)[C@@H]1C(=O)c1ccco1
Second: CC1(C)C(=NO)C(=O)C2(C)CC(O)C12 (stereo not drawn)
The melting point of the first is lower: 81 to 84 °C for the first, 115 to 118 °C for the second.

Going from `CSc1c([N+](=O)[O-])c2cc(Cl)ccc2[nH]c1=O` to `O=C(COc1ccc(Cl)cc1)C1(Cl)CC1`, the melting point falls from 213 °C to 78 °C.

First: COc1cc(Oc2cccc(C(F)(F)F)c2)nc(C(=O)NC2CC2)c1
Second: Cc1nc(NCC(C)C)nc(N2CCc3ccccc3C2C)c1C (stereo not drawn)
The melting point of the first is higher: 106 to 109 °C for the first, 93 to 95 °C for the second.

First: CC(O)C1(C)COC(c2ccc(F)cc2)OC1 (stereo not drawn)
Second: O=C(O)COC(=O)C=Cc1ccccc1
The melting point of the first is lower: 78 °C for the first, 116 to 121 °C for the second.

In the case of `N#Cc1ccc2c(O)c(C(=O)NCCCCN3CCN(C(c4ccccc4)c4ccccc4)CC3)cnc2c1`, the melting point is reported as 223 to 225 °C.
